A short description of data set [1]: Microsomal stability, mouse liver microsomes. It is filed as in vitro ADME. As to conditions: male, CD-1, mouse, pH 7.4; murine liver microsomes; read-out: CLint mLM. How it is done: Tested compounds (1 μM) were incubated with pooled human liver microsomes (Xenotech; pooled male and female) and pooled mouse liver microsomes (Xenotech; male CD-1 mice).
Microsomes (final protein concentrations of 0.25 and 0.5 mg/ml, 0.1 M phosphate buffer pH 7.4) containing tested compound (final substrate concentration 1 μM; final DMSO concentration 0.25 %) were preincubated at 37 °C prior to the addition of NADPH (final concentration 1 mM) to initiate the reaction. The final incubation volume was 200 μl. 3 species-specific control compounds were included with each species. At 5 time points (0, 5, 10, 20, and 40 min), reactions were stopped by transferring 50 μl of the incubation mixture into 0.5 μM carbamazepine in acetonitrile. Tested compound concentrations were analyzed by LC-MS/MS and the resulting data were used to determine the half-life and intrinsic clearance of the compound in each
In general terms: Liver microsomes are a subcellular fraction often used to study metabolism.

Data set [2] is described as follows: Cryopreserved hepatocyte stability, human. It is filed as in vitro ADME. The note with it: cryopreserved hepatocytes, read-out: CLint hHep. Here is the method: (§1) Cryopreserved hepatocyte stability
(§2) Tested compounds (1 μM) were incubated with human cryopreserved hepatocytes (pool of 5) (IVT Celsis) and mouse cryopreserved hepatocytes (IVT Celsis). Hepatocytes (1, 0.5 or 0.25 x10^6 cells/mL, Williams’ Medium E (WME) with 4 mM L-glutamine and 2 mM magnesium sulphate) containing tested compound (final substrate concentration 1 μM; final DMSO concentration 0.25 %) were preincubated at 37 °C. The final incubation volume was 500 μl. 3 species-specific control compounds were included with each species. At 7 time points (0, 10, 20, 40, 60, 90, and 120 min), reactions were stopped by transferring 50 μl of the incubation mixture into 0.5 μM carbamazepine in cold acetonitrile. Tested compound concentrations were analyzed by LC-MS/MS and the resulting data were used to determine the half-life and intrinsic clearance of the compound in each species. […]

Data set [3] can be described thus: Cryopreserved hepatocyte stability, mouse. It counts as in vitro ADME. The note with it: cryopreserved hepatocytes, murine hepatocytes, read-out: CLint mHep. How it is done:
as §1, §2

A short description of data set [4]: Plasma protein binding by equilibrium dialysis, murine. It counts as in vitro ADME. The note with it: mouse, read-out: PPB (% bound). How it is done: The free and bound fractions of the tested compounds in mouse and human plasma were determined by equilibrium dialysis using a 96-well Teflon dialysis unit (HTDialysis plate complete unit, HT Dialysis, USA). The HTDialysis plate complete unit consists of a 96-well plate with wells vertically bisected by a semipermeable membrane (membranes strips 12 to 14 kDa) creating two chambers. A 125 μL aliquot of plasma containing tested compound at 10 μM was placed on one side and 125 μL of Dulbecco‘s phosphate buffered saline (D-PBS) on the other. The plate was incubated at 37 °C for 6 hr under gentle agitation. Then, samples from both plasma and buffer compartment were analyzed by a LC-MS/MS method to measure the free fraction and the bound fraction to the plasma proteins. […]
A general note: Equilibrium dialysis compares concentrations on both sides of a semipermeable membrane.

Data set [5] can be described thus: PK parameters in mice. It counts as in vivo, male Swiss (CD-1) mice. As to conditions: mouse. How it is done: PK parameters and tissue distribution in mice
The pharmacokinetic profiles of the tested compounds were evaluated in male Swiss (CD-1) mice around 5-6 weeks old (3 animals per sampling time). […]
0.2 % Tween 80 in water. Blood samples were collected (0.25 mL) from the sinus retro-orbital […]
24 hr for p.o. route. The blood samples were immediately centrifuged at 2500 rpm at +4 °C, and the plasma was stored at −80 °C. 50 μL of plasma sample was taken and 150 μL of acetonitrile was added. After protein precipitation, analysis of the molecule was performed using LC-MS/MS to determine plasma compound concentration. For liver and lung collection, 3 animals per group were involved and sampled after 2 hr and 24 hr upon 20 mg/kg p.o. administration. Animals were perfused with around 10 mL of saline solution directly into the heart to extract the maximal blood sample from the liver and the lung. Animals were then sacrificed by cervical dislocation and liver

The target of data set [6] is T1, NAF-1 (Homo sapiens, UniProt Q8N5K1).
T1 construct: MitoNEET ([60]) and NAF-1 ([61]) cytosolic domains and MiNT ([62]) were purified from E. coli as previously published; made in house; host or cells: E. coli
T1 sequence (Q8N5K1 61-135 limits assumed): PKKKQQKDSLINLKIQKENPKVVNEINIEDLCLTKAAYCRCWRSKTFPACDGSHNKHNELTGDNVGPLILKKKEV
The data set is described as follows: In vitro NEET [2Fe-2S] cluster release, NAF-1. It is filed as biochemical. The note with it: recombinant NAF-1, 37 °C, absorbance 460 nm. Here is the method:
(§3) MitoNEET ([60]) and NAF-1 ([61]) cytosolic domains and MiNT ([62]) were purified from E. coli as previously published. Experiments were performed in 96-well plates at 37 °C with […] of Fe-S cluster in a buffer composed of 50 mM Tris-HCl pH 7 and 100 mM NaCl. dEF3122 was dissolved in dimethyl sulfoxide (DMSO) at 10 mM. CPEP31 was dissolved in PBS at 10 mM. After 20 min of incubation of the protein with the molecule, NEET cluster release was followed by measuring the absorbance at 460 and 800 nm over time using a plate reader (SpectraMax ID3). The absorbance at 460 nm was corrected for the variation of the baseline (absorbance at 800 nm) over time and normalized at 1 at the beginning of the kinetics.

Data set [7] concerns the target T2, MiNT (Homo sapiens, UniProt P0C7P0).
T2 construct: made in house; host or cells: E. coli
T2 sequence (P0C7P0 15-127): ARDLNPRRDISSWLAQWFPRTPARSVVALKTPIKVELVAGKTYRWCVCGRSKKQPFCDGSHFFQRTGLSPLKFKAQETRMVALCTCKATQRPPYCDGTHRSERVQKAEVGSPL
In words: In vitro NEET [2Fe-2S] cluster release, MiNT. As to conditions: recombinant MiNT, 37 °C, absorbance 460 nm. It is filed as biochemical. How it is done: as §3

The nature of data set [8]: in vivo. The note with it: male, CD1, mouse, 20 mg/kg, 20 mg/kg per os.
Data set [9] concerns influenza A H1N1 virus. The data set is described as follows: microbe, parasite or virus in culture. As to conditions: H1N1, A549, read-out: Neuraminidase activity assay IC50.

In general, Cmax refers to the highest concentration seen after dosing. A word on the bioavailability: it is the share of a dose that reaches the circulation, judged against a reference dose that is usually intravenous. A low value points to poor availability. Broadly, the Kp is the ratio of the level in a tissue or fluid to that in plasma or blood. Broadly, the IC50 is the midpoint of a concentration-inhibition curve. Consider `O=C(Nc1scc(C2CCc3ccccc3C2)c1C(=O)O)c1ccccc1` (centres unmarked) [dEF3122], for which, in [1], the microsomal CLint at 1 µM was determined as 24 µL/min/mg. In addition, the hepatocyte CLint at 1 µM in data set [2] is 19 µL/min/1e6 cells; in [3], < 5 µL/min/1e6 cells. Besides, the fraction unbound at 6 h, 10 µM in data set [4] came out at 0.001. In data set [5] (male, Swiss (CD-1), plasma, po 2 mg/kg (dose for AUC)), this molecule had a Cmax of 1600 ng/mL. In [5] (male, Swiss (CD-1), plasma, po 2 mg/kg, iv 0.25 mg/kg), the bioavailability was 36%. In addition, the “plasma concentration reached after oral administration, molar equivalent” value in data set [5] (po 2 mg/kg) came out at 2600 nM. Also, the “interaction by [2Fe-2S] cluster release assay” value in [6] and in data set [7] was “validated the interaction” each time. In addition, the Kp came to 0.45 in data set [8] (Liver:Plasma Ratio, 2 h); 0.88 in data set [8] (Liver:Plasma Ratio, 24 h); 0.12 in data set [8] (Lung:Plasma Ratio, 2 h); 0.13 in data set [8] (Lung:Plasma Ratio, 24 h). Moreover, in data set [9], the half-inhibitory concentration (IC50) came out at 3 nM.

These data come from paper PMC10835127, “Viruses traverse the human proteome through peptide interfaces that can be biomimetically leveraged for drug discovery” (Proceedings of the National Academy of Sciences of the …, 2024).
